For data set [1], the species on record is Homo sapiens. The data set can be described thus: (§1) Displacement of Mant-ATP from human recombinant UCK by fluorescence competition assay.
Data set [2] has as its system Human alphaherpesvirus 3. The data set can be described thus: Antiviral activity against VZV OKA expressing thymidine kinase infected in human HEL cells assessed as reduction of virus-induced cytopathogenicity after 5 days. The conditions noted are these: Human alphaherpesvirus 3, OKA, 120 h. It is filed as functional, organism-based.
Data set [3] concerns Human alphaherpesvirus 2. The data set can be described thus: Antiviral activity against HSV2 G infected in human HEL cells assessed as reduction of virus-induced cytopathogenicity after 7 days. Format: functional, organism-based. Conditions: Human alphaherpesvirus 2, strain G, 168 h.
Data set [4] in a line: Cytotoxicity against human HEL cells after 3 days. Format: cell-based.
In data set [5] the test system is Human alphaherpesvirus 1. Put plainly: Antiviral activity against acyclovir-resistant thymidine kinase deficient HSV1 KOS infected in human HEL cells assessed as reduction of virus-induced cytopathogenicity after 7 days. Format: functional, organism-based. Conditions: Human alphaherpesvirus 1, KOS, 168 h.
Data set [6] relates to Human alphaherpesvirus 1. The data set can be described thus: Antiviral activity against HSV1 KOS infected in human HEL cells assessed as reduction of virus-induced cytopathogenicity after 7 days. Format: functional, organism-based. Conditions: Human alphaherpesvirus 1, KOS, 168 h.
The species entered for data set [7] is Homo sapiens. Put plainly: Binding affinity to human recombinant UCK by circular dichroism analysis.
The subject of data set [8] is Human alphaherpesvirus 3. Put plainly: Antiviral activity against thymidine kinase-deficient VZV 07/1 infected in human HEL cells assessed as reduction of virus-induced cytopathogenicity after 5 days. The conditions noted are these: Human alphaherpesvirus 3, 07/1, HEL, 120 h. It is filed as functional, organism-based.
Data set [9] concerns Human betaherpesvirus 5. Put plainly: Antiviral activity against HCMV AD169/Davis infected in human HEL cells assessed as reduction of virus-induced cytopathogenicity after 7 days. Format: functional, organism-based. Conditions: Human betaherpesvirus 5, AD169/Davis, 168 h.
For data set [10], the species on record is Homo sapiens. Put plainly: Binding affinity to human recombinant UCK dCMP binding site.
Data set [11] is filed under the species Homo sapiens. Put plainly: Activity at human recombinant UCK by Michaelis-Menten equation analysis.
Data set [12] in a line: as §1. Conditions: read-out: Kd(app).
The target in data set [13] is Thymidine kinase, cytosolic (Homo sapiens) (UniProt P04183). The data set can be described thus: Inhibition of human recombinant TK1-mediated thymidine phosphorylation ar 0.3 mM.
The species named for data set [14] is Homo sapiens. Put plainly: Displacement of MABA-CDP from human recombinant UCK by fluorescence competition assay.
For data set [15], the target named is Thymidine kinase 2, mitochondrial (Homo sapiens) (UniProt O00142). The data set can be described thus: Inhibition of human recombinant TK2-mediated thymidine phosphorylation ar 0.3 mM.
A short description of data set [16]: Inhibition of human recombinant UCK by Double reciprocal plot analysis.
The species named for data set [17] is Homo sapiens. Put plainly: Binding affinity to human recombinant UCK ATP binding site.
Substrate in data set [18]: O=c1[nH]c(=O)n(C/C=C/P(=O)(O)O)cc1Cl
Put plainly: (§2) Ratio of kcat/km for human recombinant TMPK by Michaelis-Menten equation analysis.

Substrate in data set [19]: O=c1[nH]c(=O)n(C/C=C/CP(=O)(O)O)cc1F
The data set is described as §2.

Substrate in data set [20]: Cc1cn([C@H]2C[C@H](O)[C@@H](COP(=O)(O)O)O2)c(=O)[nH]c1=O
Described as §2.

Substrate in data set [21]: Cc1cn(C/C=C/CCP(=O)(O)O)c(=O)[nH]c1=O
The data set is described as §2.

Substrate in data set [22]: O=c1[nH]c(=O)n(C/C=C/CCP(=O)(O)O)cc1Cl
The description is as §2.

Substrate in data set [23]: O=c1[nH]c(=O)n([C@H]2C[C@H](O)[C@@H](COP(=O)(O)O)O2)cc1Br
Described as §2.

Substrate in data set [24]: O=c1ccn(C/C=C/CP(=O)(O)O)c(=O)[nH]1
The description is as §2.

Substrate in data set [25]: O=c1ccn([C@H]2C[C@H](O)[C@@H](COP(=O)(O)O)O2)c(=O)[nH]1
The description is as §2.

Substrate in data set [26]: O=c1[nH]c(=O)n(C/C=C/CCP(=O)(O)O)cc1F
The data set is described as §2.

Substrate in data set [27]: O=c1[nH]c(=O)n(C/C=C/CCP(=O)(O)O)cc1Br
Described as §2.

Substrate in data set [28]: Cc1cn(C/C=C/CP(=O)(O)O)c(=O)[nH]c1=O
The data set is described as §2.

Substrate in data set [29]: Cc1cn([C@H]2C[C@H](N=[N+]=[N-])[C@@H](COP(=O)(O)O)O2)c(=O)[nH]c1=O
Described as §2.

Substrate in data set [30]: O=c1ccn(C/C=C/CCP(=O)(O)O)c(=O)[nH]1
The description is as §2.

Substrate in data set [31]: O=c1[nH]c(=O)n(C/C=C/CP(=O)(O)O)cc1Cl
The data set is described as §2.

Substrate in data set [32]: O=c1[nH]c(=O)n(C/C=C/CP(=O)(O)O)cc1Br
The description is as §2.

Substrate in data set [33]: Cc1cn(C/C=C/P(=O)(O)O)c(=O)[nH]c1=O
The description is as §2.

Substrate in data set [34]: O=c1[nH]c(=O)n(C/C=C/CP(=O)(O)O)cc1F
Put plainly: (§3) Activity at human recombinant TMPK by Michaelis-Menten equation analysis.

Substrate in data set [35]: Cc1cn([C@H]2C[C@H](O)[C@@H](COP(=O)(O)O)O2)c(=O)[nH]c1=O
The description is as §3.

Substrate in data set [36]: Cc1cn(C/C=C/CCP(=O)(O)O)c(=O)[nH]c1=O
The description is as §3.

Substrate in data set [37]: O=c1[nH]c(=O)n(C/C=C/CCP(=O)(O)O)cc1Cl
The description is as §3.

Substrate in data set [38]: O=c1[nH]c(=O)n([C@H]2C[C@H](O)[C@@H](COP(=O)(O)O)O2)cc1Br
Described as §3.

Substrate in data set [39]: O=c1ccn(C/C=C/CP(=O)(O)O)c(=O)[nH]1
The data set is described as §3.

Substrate in data set [40]: O=c1ccn([C@H]2C[C@H](O)[C@@H](COP(=O)(O)O)O2)c(=O)[nH]1
The description is as §3.

Substrate in data set [41]: O=c1[nH]c(=O)n(C/C=C/CCP(=O)(O)O)cc1F
The description is as §3.

Substrate in data set [42]: O=c1[nH]c(=O)n(C/C=C/CCP(=O)(O)O)cc1Br
Described as §3.

Substrate in data set [43]: Cc1cn(C/C=C/CP(=O)(O)O)c(=O)[nH]c1=O
The description is as §3.

Substrate in data set [44]: O=c1ccn(C/C=C/CCP(=O)(O)O)c(=O)[nH]1
The data set is described as §3.

Substrate in data set [45]: O=c1[nH]c(=O)n(C/C=C/CP(=O)(O)O)cc1Cl
The description is as §3.

Substrate in data set [46]: O=c1[nH]c(=O)n(C/C=C/CP(=O)(O)O)cc1Br
The data set is described as §3.

Substrate in data set [47]: Cc1cn(C/C=C/P(=O)(O)O)c(=O)[nH]c1=O
Described as §3.

Experimental findings from ChEMBL document CHEMBL1649078, “Novel antiviral C5-substituted pyrimidine acyclic nucleoside phosphonates selected as human thymidylate kinase substrates” (J Med Chem, 2011) are described below.

The source made the active and inactive calls.

Sequence of Thymidine kinase, cytosolic (Homo sapiens) (P04183 whole entry): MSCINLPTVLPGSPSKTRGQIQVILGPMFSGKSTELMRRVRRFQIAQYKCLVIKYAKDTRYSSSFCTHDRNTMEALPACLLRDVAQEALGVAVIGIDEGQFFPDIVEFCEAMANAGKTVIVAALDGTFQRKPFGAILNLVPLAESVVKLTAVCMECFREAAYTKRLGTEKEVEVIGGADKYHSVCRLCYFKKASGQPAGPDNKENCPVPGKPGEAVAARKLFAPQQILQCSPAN
Sequence of Thymidine kinase 2, mitochondrial (Homo sapiens) (O00142 whole entry): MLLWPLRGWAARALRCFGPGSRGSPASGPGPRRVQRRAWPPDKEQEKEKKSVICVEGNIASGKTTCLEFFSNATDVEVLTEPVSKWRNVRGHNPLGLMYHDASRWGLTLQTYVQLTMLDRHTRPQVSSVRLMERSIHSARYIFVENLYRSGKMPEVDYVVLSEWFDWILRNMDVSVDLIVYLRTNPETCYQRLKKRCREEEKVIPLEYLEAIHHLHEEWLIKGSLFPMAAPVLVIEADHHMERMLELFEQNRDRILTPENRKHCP

Turning to `Nc1ccn(C[C@@H](CO)OCP(=O)(O)O)c(=O)n1` [CIDOFOVIR], the outcome in data set [1] and in [7] was inactive. Further, the concentration for a half-maximal effect (EC50) turned out to be 0.044 µM in data set [2]; 2 µM in [3]; 2.5 µM in [5]; 3.5 µM in data set [6]; 0.07 µM in [8]; 1.2 µM in data set [9]. This molecule also had a CC50 at 72 h in [4] of 280 µM. The MCC at 72 h in data set [4] is > 250 µM.

With `O=c1[nH]c(=O)n(C/C=C/CP(=O)(O)O)cc1Cl`, the result in data set [10] and in data set [17] was Active. The result in data set [11] and in data set [14] was inactive. In addition, the Kd in data set [12] is 170 µM. In addition, the inhibition in [13] and in data set [15] was 15% throughout. Also, the inhibitory constant (Ki) in data set [16] stood at 250 µM.

With `Nc1ncnc2c1ncn2CCOCP(=O)(O)O`, the outcome in data set [1] was inactive.

As to `Cc1cn(C/C=C/CP(=O)(O)O)c(=O)[nH]c1=O`, the result in data set [11] and in [14] was inactive. Also, the Ki in data set [16] turned out to be 1200 µM.

As for `C[C@H](Cn1cnc2c(N)ncnc21)OCP(=O)(O)O`, the outcome in data set [1] was inactive.

For `CC(C)(C)C(=O)OCOP(=O)(C/C=C/Cn1cc(Br)c(=O)[nH]c1=O)OCOC(=O)C(C)(C)C`, the result in data set [11] and in data set [14] was inactive. Further, the EC50 in [2] was 20 µM; in data set [3], 16 µM; in data set [5], 19 µM; in data set [6] it was 20 µM; in data set [8] it was 15 µM; in data set [9] it was > 40 µM. For the same molecule, in [4], half-maximal cytotoxicity (CC50 at 72 h) was put at 34 µM. In data set [4], the MCC at 72 h stood at 200 µM.

With `CC(C)(C)C(=O)OCOP(=O)(C/C=C\Cn1cc(Br)c(=O)[nH]c1=O)OCOC(=O)C(C)(C)C`, the result in data set [11] and in data set [14] was inactive. The EC50 in data set [2] is 97 µM; in [3], 45 µM; in data set [5], > 200 µM; in data set [6] it was > 200 µM; in data set [8], 110 µM; in data set [9], > 200 µM. The same molecule returned a CC50 at 72 h in [4] of 70 µM. Moreover, the MCC at 72 h in data set [4] was > 200 µM.

Consider `Nc1ccn([C@H]2C[C@H](O)[C@@H](COP(=O)(O)O)O2)c(=O)n1`, for which the result in [7] was inactive.

B1: Thymidylate kinase (Homo sapiens), P23919 (protein)
chain: MAARRGALIVLEGVDRAGKSTQSRKLVEALCAAGHRAELLRFPERSTEIGKLLSSYLQKKSDVEDHSVHLLFSANRWEQVPLIKEKLSQGVTLVVDRYAFSGVAFTGAKENFSLDWCKQPDVGLPKPDLVLFLQLQLADAAKRGAFGHERYENGAFQERALRCFHQLMKDTTLNWKMVDASKSIEAVHEDIRVLSEDAIRTATEKPLGELWK
With B1, the kcat/Km in [18] stood at 80 M⁻¹ s⁻¹; in [19] it was 730 M⁻¹ s⁻¹; in [20], 150000 M⁻¹ s⁻¹; in data set [21], 3200 M⁻¹ s⁻¹; in data set [22], 660 M⁻¹ s⁻¹; in [23] it was 120000 M⁻¹ s⁻¹. Also, the kcat/Km in [24] turned out to be 280 M⁻¹ s⁻¹; in data set [25], 28000 M⁻¹ s⁻¹; in data set [26] it was 47 M⁻¹ s⁻¹; in data set [27], 360 M⁻¹ s⁻¹; in [28], 35000 M⁻¹ s⁻¹; in data set [29], 1000 M⁻¹ s⁻¹. The kcat/Km in data set [30] was 30 M⁻¹ s⁻¹; in [31] it was 4100 M⁻¹ s⁻¹; in data set [32] it was 45000 M⁻¹ s⁻¹; in data set [33] it was 600 M⁻¹ s⁻¹. Besides, the Km in [34] was found to be 1000 µM; in data set [35], 20 µM; in [36], 100 µM; in [37], 150 µM; in data set [38], 10 µM; in data set [39], 1700 µM. For the same molecule, the Km in [40] is 170 µM; in [41] it was 1900 µM; in data set [42] it was 160 µM; in [43], 24 µM; in data set [44], 2500 µM; in [45], 130 µM. Besides, the Km in data set [46] worked out at 20 µM; in data set [47], 1000 µM. For the same molecule, the kcat in [34] was determined as 0.73 s⁻¹; in data set [35] it was 3 s⁻¹; in data set [36] it was 0.32 s⁻¹; in [37] it was 0.1 s⁻¹; in data set [38] it was 1.2 s⁻¹; in [39] it was 0.48 s⁻¹. Besides, the kcat in data set [40] came to 4.8 s⁻¹; in data set [41] it was 0.09 s⁻¹; in data set [42], 0.058 s⁻¹; in data set [43], 0.84 s⁻¹; in data set [44], 0.074 s⁻¹; in data set [45], 0.5 s⁻¹. The kcat worked out at 0.9 s⁻¹ in data set [46] and 0.6 s⁻¹ in [47].
